Reference: PubChem BioAssay AID1259407 (Chemical Carcinogenesis Research Information System (CCRIS), 2018)
Activity calls are given as the source filed them. The rule behind the calls is not given here.

System: CCRIS mutagenicity, Ames/micronucleus/aberration tests
Experiment: CCRIS mutagenicity studies
[1] = Test System: AMES SALMONELLA TYPHIMURIUM, Strain/Indicator: TA98, Metabolic Activation: NONE, Method: STANDARD PLATE
[2] = Test System: AMES SALMONELLA TYPHIMURIUM, Strain/Indicator: TA98, Metabolic Activation: NONE, Method: PREINCUBATION
[3] = Test System: AMES SALMONELLA TYPHIMURIUM, Strain/Indicator: TA100, Metabolic Activation: NONE, Method: PREINCUBATION

SMILES: C/C=C/C=C/CCCCCCCOC(C)=O
- mutagenic call [1]: inactive; negative
- mutagenic call (Test System: AMES SALMONELLA TYPHIMURIUM, Strain/Indicator: TA98, Metabolic Activation: RAT, LIVER, S-9, Method: STANDARD PLATE): inactive; negative
- mutagenic call (Test System: AMES SALMONELLA TYPHIMURIUM, Strain/Indicator: TA100, Metabolic Activation: NONE, Method: STANDARD PLATE): inactive; negative
- mutagenic call (Test System: AMES SALMONELLA TYPHIMURIUM, Strain/Indicator: TA100, Metabolic Activation: RAT, LIVER, S-9, Method: STANDARD PLATE): inactive; negative
- mutagenic call (Test System: AMES SALMONELLA TYPHIMURIUM, Strain/Indicator: TA102, Metabolic Activation: NONE, Method: STANDARD PLATE): inactive; negative
- mutagenic call (Test System: AMES SALMONELLA TYPHIMURIUM, Strain/Indicator: TA102, Metabolic Activation: RAT, LIVER, S-9, Method: STANDARD PLATE): inactive; negative

SMILES: O=C(O)c1cc([N+](=O)[O-])ccc1[N+](=O)[O-]
- mutagenic call [2]: active; positive
- mutagenic call (Test System: AMES SALMONELLA TYPHIMURIUM, Strain/Indicator: TA98, Metabolic Activation: RAT, LIVER, S-9, KANECHLOR 500, Method: PREINCUBATION): active; positive
- mutagenic call (Test System: AMES SALMONELLA TYPHIMURIUM, Strain/Indicator: TA100, Metabolic Activation: RAT, LIVER, S-9, KANECHLOR 500, Method: PREINCUBATION): inactive; negative

SMILES: NC(N)=NCCCC(N)C(=O)O (stereo not drawn)
- mutagenic call (Test System: AMES SALMONELLA TYPHIMURIUM, Strain/Indicator: TA98, Metabolic Activation: RAT LIVER S-9, CHLOROPHENE, Method: STANDARD PLATE (COMPOUND HEATED AT 250 DEGREES CELSIUS FOR 20 MIN)): active; positive
- mutagenic call (Test System: Ames Salmonella typhimurium, Strain/Indicator: TA98, Metabolic Activation: Rat, Liver, S9, Aroclor 1254, assay without cofactors, Method: Preincubation): inactive; negative
- mutagenic call (Test System: Ames Salmonella typhimurium, Strain/Indicator: TA98, Metabolic Activation: Rat, Liver, S9, Aroclor 1254, heat inactivated, Method: Preincubation): inactive; negative
- mutagenic call (Test System: Ames Salmonella typhimurium, Strain/Indicator: TA98, Metabolic Activation: Rat, Liver, S9, Aroclor 1254, Method: Preincubation): active; positive. statistically significant at 2 highest doses.

SMILES: CCN(CC(O)c1ccc([N+]#N)c([O-])c1)N=O (stereo not drawn)
- mutagenic call [2]: active; positive
- mutagenic call (Test System: AMES SALMONELLA TYPHIMURIUM, Strain/Indicator: TA98, Metabolic Activation: RAT LIVER S-9, PCB, Method: PREINCUBATION): active; positive
- mutagenic call [3]: active; positive
- mutagenic call (Test System: AMES SALMONELLA TYPHIMURIUM, Strain/Indicator: TA100, Metabolic Activation: RAT LIVER S-9, PCB, Method: PREINCUBATION): active; positive

SMILES: O=[N+]([O-])c1cc([N+](=O)[O-])c2c3ccccc3c3cccc4ccc1c2c43
- mutagenic call [1]: active; positive

SMILES: CC(=O)OCCC(C)C
- mutagenic call (Test System: AMES SALMONELLA TYPHIMURIUM, Strain/Indicator: TA97, Metabolic Activation: HAMSTER, LIVER, S-9, AROCLOR 1254 (10%), Method: PREINCUBATION): inactive; negative
- mutagenic call (Test System: AMES SALMONELLA TYPHIMURIUM, Strain/Indicator: TA97, Metabolic Activation: HAMSTER, LIVER, S-9, AROCLOR 1254 (30%), Method: PREINCUBATION): inactive; negative
- mutagenic call (Test System: AMES SALMONELLA TYPHIMURIUM, Strain/Indicator: TA97, Metabolic Activation: NONE, Method: PREINCUBATION): inactive; negative
- mutagenic call (Test System: AMES SALMONELLA TYPHIMURIUM, Strain/Indicator: TA97, Metabolic Activation: RAT, LIVER, S-9, AROCLOR 1254 (10%), Method: PREINCUBATION): inactive; negative
- mutagenic call (Test System: AMES SALMONELLA TYPHIMURIUM, Strain/Indicator: TA97, Metabolic Activation: RAT, LIVER, S-9, AROCLOR 1254 (30%), Method: PREINCUBATION): inactive; negative
- mutagenic call (Test System: AMES SALMONELLA TYPHIMURIUM, Strain/Indicator: TA98, Metabolic Activation: HAMSTER, LIVER, S-9, AROCLOR 1254 (10%), Method: PREINCUBATION): inactive; negative
- mutagenic call (Test System: AMES SALMONELLA TYPHIMURIUM, Strain/Indicator: TA98, Metabolic Activation: HAMSTER, LIVER, S-9, AROCLOR 1254 (30%), Method: PREINCUBATION): inactive; negative
- mutagenic call [2]: inactive; negative
- mutagenic call (Test System: AMES SALMONELLA TYPHIMURIUM, Strain/Indicator: TA98, Metabolic Activation: RAT, LIVER, S-9, AROCLOR 1254 (10%), Method: PREINCUBATION): inactive; negative
- mutagenic call (Test System: AMES SALMONELLA TYPHIMURIUM, Strain/Indicator: TA98, Metabolic Activation: RAT, LIVER, S-9, AROCLOR 1254 (30%), Method: PREINCUBATION): inactive; negative
- mutagenic call (Test System: AMES SALMONELLA TYPHIMURIUM, Strain/Indicator: TA100, Metabolic Activation: HAMSTER, LIVER, S-9, AROCLOR 1254 (10%), Method: PREINCUBATION): inactive; negative
- mutagenic call (Test System: AMES SALMONELLA TYPHIMURIUM, Strain/Indicator: TA100, Metabolic Activation: HAMSTER, LIVER, S-9, AROCLOR 1254 (30%), Method: PREINCUBATION): inactive; negative
- mutagenic call [3]: inactive; negative
- mutagenic call (Test System: AMES SALMONELLA TYPHIMURIUM, Strain/Indicator: TA100, Metabolic Activation: RAT, LIVER, S-9, AROCLOR 1254 (10 OR 30%), Method: PREINCUBATION): inactive; negative
- mutagenic call (Test System: AMES SALMONELLA TYPHIMURIUM, Strain/Indicator: TA1535, Metabolic Activation: HAMSTER, LIVER, S-9, AROCLOR 1254 (10%), Method: PREINCUBATION): inactive; negative
- mutagenic call (Test System: AMES SALMONELLA TYPHIMURIUM, Strain/Indicator: TA1535, Metabolic Activation: HAMSTER, LIVER, S-9, AROCLOR 1254 (30%), Method: PREINCUBATION): inactive; negative
- mutagenic call (Test System: AMES SALMONELLA TYPHIMURIUM, Strain/Indicator: TA1535, Metabolic Activation: NONE, Method: PREINCUBATION): inactive; negative
- mutagenic call (Test System: AMES SALMONELLA TYPHIMURIUM, Strain/Indicator: TA1535, Metabolic Activation: RAT, LIVER, S-9, AROCLOR 1254 (10%), Method: PREINCUBATION): inactive; negative
- mutagenic call (Test System: AMES SALMONELLA TYPHIMURIUM, Strain/Indicator: TA1535, Metabolic Activation: RAT, LIVER, S-9, AROCLOR 1254 (30%), Method: PREINCUBATION): inactive; negative
- mutagenic call (Test System: AMES SALMONELLA TYPHIMURIUM, Strain/Indicator: TA1537, Metabolic Activation: HAMSTER, LIVER, S-9, AROCLOR 1254 (30%), Method: PREINCUBATION): inactive; negative
- mutagenic call (Test System: AMES SALMONELLA TYPHIMURIUM, Strain/Indicator: TA1537, Metabolic Activation: NONE, Method: PREINCUBATION): inactive; negative
- mutagenic call (Test System: AMES SALMONELLA TYPHIMURIUM, Strain/Indicator: TA1537, Metabolic Activation: RAT, LIVER, S-9, AROCLOR 1254 (30%), Method: PREINCUBATION): inactive; negative

SMILES: Cc1ccc2c(ccc3cc4ccccc4cc32)c1
- mutagenic call (Test System: AMES SALMONELLA TYPHIMURIUM, Strain/Indicator: TA100, Metabolic Activation: RAT, INTACT HEPATOCYTES, AROCLOR 1254, Method: PREINCUBATION): inactive; negative
- mutagenic call (Test System: AMES SALMONELLA TYPHIMURIUM, Strain/Indicator: TA100, Metabolic Activation: RAT, NADPH-FORTIFIED HOMOGENIZED HEPATOCYTES, AROCLOR 1254, Method: PREINCUBATION): active; positive
- mutagenic call (Test System: AMES SALMONELLA TYPHIMURIUM, Strain/Indicator: TA100, Metabolic Activation: RAT, SONICATED HEPATOCYTES, AROCLOR 1254, Method: PREINCUBATION): active; positive
